This is an account of results in US9546157B2, “Asymmetric piperidinyl-substituted ureas as medicines” (Helsinn Healthcare SA, priority 2014, dated 2017).

Structures are written as SMILES. Where only a bound is given, the exact number is not on record here.

Assay [1] addresses T1, GHSR1a (Homo sapiens, UniProt Q92847).
T1 construct: expressed in transfected cells; host or cells: HEK293
Kind of assay: Calcium FLIPR assay, GHSR-1a antagonism (reduction of ghrelin response). The class given is cell-based. Conditions: HEK293/GHSR1a cells, ghrelin 10 nM. How it is done: (§1) The intracellular calcium assay was carried out in a 384-well format FLIPR™ (Molecular Device) HEK293/GHSR1a cell line. Cells were seeded 24 hr prior to the experiments at an optimal density per well. Preincubation with selected calcium dye lasted for 30-60 min at room temperature or 37° C. Test compounds, dissolved in DMSO, were added at the appropriate time and incubated for 15 min followed by the addition of ghrelin with FlexStation or FLIPR. Relative fluorescence was monitored by the FLIPR™ Molecular Device. EC50 and IC50 values were estimated from dose-response data using GraphPad Prism software. To check for GHSR-1a agonism the compound was added at t=20 sec. and the calcium response was followed for 2 minutes. To check for GHSR-1a antagonism the compound and Ghrelin (10 nM) were added to the cells at t=20 sec. and the calcium response was measured for 2 minutes. The potency of the antagonist was calculated by its ability to reduce the ghrelin response. Dose-response curves were made for relevant antagonists.

The target in assay [2] is T1, GHSR1a. Kind of assay: Calcium FLIPR assay, GHSR-1a agonism. It counts as cell-based. The arrangement: Emax: unit not given here. The note with it: HEK293/GHSR1a cells. How it is done:
as §1

T1 sequence (Q92847 whole entry): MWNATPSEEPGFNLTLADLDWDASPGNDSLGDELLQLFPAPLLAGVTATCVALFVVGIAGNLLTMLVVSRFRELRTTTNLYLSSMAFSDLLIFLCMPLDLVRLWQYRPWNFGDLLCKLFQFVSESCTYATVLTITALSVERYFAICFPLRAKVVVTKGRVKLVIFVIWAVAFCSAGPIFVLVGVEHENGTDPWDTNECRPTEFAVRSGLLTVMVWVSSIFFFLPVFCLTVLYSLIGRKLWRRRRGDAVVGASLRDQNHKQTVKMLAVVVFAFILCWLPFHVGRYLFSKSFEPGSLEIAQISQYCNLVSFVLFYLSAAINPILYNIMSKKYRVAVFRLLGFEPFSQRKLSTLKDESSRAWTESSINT

Usually IC50 stands for the concentration needed to halve the response being measured. The EC50 is the concentration giving half of the maximal effect. For `CC(NC(=O)N(C)C1CCC(F)(F)CC1)c1ccc(-c2cncnc2)c(Cl)c1Cl` (centres unmarked) [Compound H0587, 3-(1-(2,3-dichloro-4-(pyrimidin-5-yl)phenyl)ethyl)-1-(4,4-difluorocyclohexyl)-1-methylurea], at GHSR1a [1], the IC50 was above 30000 nM. For the same molecule, the EC50 on GHSR1a [2] was above 30000 nM.

Consider `CC(=O)N1CCC(N(C)C(=O)NC(C)c2ccc(-c3cncnc3)c(Cl)c2Cl)CC1` (centres unmarked) [Compound H0588, 1-(1-acetylpiperidin-4-yl)-3-(1-(2,3-dichloro-4-(pyrimidin-5-yl)phenyl)ethyl)-1-methylurea], for which, at GHSR1a [1], the IC50 was above 30000 nM. In addition, on GHSR1a [2], the EC50 was above 30000 nM.

Consider `CC(NC(=O)N(C)C1CCN(C)CC1)c1ccc(-c2nnco2)c(Cl)c1Cl` (centres unmarked) [Compound H0595, 3-(1-(2,3-dichloro-4-(1,3,4-oxadiazol-2-yl)phenyl)ethyl)-1-methyl-1-(1-methylpiperidin-4-yl)urea], for which the IC50 at GHSR1a [1] turned out to be 28 nM. The EC50 on GHSR1a [2] worked out at 43 nM.

For the molecule `CC(NC(=O)N(C)C1CCN(C)CC1)c1ccc(-c2ccoc2)c2ccccc12` (centres unmarked) [Compound H0598, 3-(1-(4-(furan-3-yl)naphthalen-1-yl)ethyl)-1-methyl-1-(1-methylpiperidin-\4-yl)urea], the IC50 on GHSR1a [1] is 63 nM. The EC50 at GHSR1a [2] is 271 nM.

For `CC(NC(=O)N(C)C1CCN(C)CC1)c1ccc(-c2cnc[nH]2)c2ccccc12` (centres unmarked) [Compound H0599, 3-(1-(4-(1H-imidazol-5-yl)naphthalen-1-yl)ethyl)-1-methyl-1-(1-methylpiperidin-4-yl)urea], the IC50 at GHSR1a [1] came to 212 nM. Also, the EC50 at GHSR1a [2] is 478 nM.

In the case of `CC(NC(=O)N(C)C1CCN(C)CC1)c1ccc(C#C[Si](C)(C)C)c(Cl)c1Cl` (centres unmarked) [Compound H0602, 3-(1-(2,3-dichloro-4-((trimethylsilyl)ethynyl)phenyl)ethyl)-1-methyl-1-(1-methylpiperidin-4-yl)urea], the IC50 on GHSR1a [1] was 8 nM. For the same molecule, the EC50 at GHSR1a [2] is above 30000 nM.

For `CC(NC(=O)N(C)C1CCN(C)CC1)c1ccc(-c2cc(F)cc(F)c2)c(Cl)c1Cl` (centres unmarked) [Compound H0605, 3-(1-(2,3-dichloro-3′,5′-difluoro[1,1′-biphenyl]-4-yl)ethyl)-1-methyl-1-(1-methylpiperidin-4-yl)urea], the half-inhibitory concentration (IC50) at GHSR1a [1] worked out at 31 nM. Further, at GHSR1a [2], the EC50 is 96 nM and the Emax amounted to 1833.

For `COc1cccc(-c2ccc(C(C)NC(=O)N(C)C3CCN(C)CC3)c(Cl)c2Cl)c1` (centres unmarked) [Compound H0606, 3-(1-(2,3-dichloro-3′-methoxy-[1,1′-biphenyl]-4-yl)ethyl)-1-methyl-1-(1-methylpiperidin-4-yl)urea], at GHSR1a [1], the IC50 was 24 nM. Besides, on GHSR1a [2], the EC50 came out at 31 nM and the Emax is on record as 2336.

Regarding `CC(C)Oc1ccc(-c2ccc(C(C)NC(=O)N(C)C3CCN(C)CC3)c(Cl)c2Cl)cn1` (centres unmarked) [Compound H0608, 3-(1-(2,3-dichloro-4-(6-isopropoxypyridin-3-yl)phenyl)ethyl)-1-methyl-1-(1-methylpiperidin-4-yl)urea], the IC50 at GHSR1a [1] is 69 nM. The EC50 at GHSR1a [2] was determined as 422 nM.

Take `CC(NC(=O)N(C)C1CCN(C)CC1)c1ccc(C#Cc2ccccc2)c(Cl)c1Cl` (centres unmarked) [Compound H0609, 3-(1-(2,3-dichloro-4-(phenylethynyl)phenyl)ethyl)-1-methyl-1-(1-methylpiperidin-4-yl)urea]: the IC50 at GHSR1a [1] stood at 517 nM. In addition, the EC50 at GHSR1a [2] was above 30000 nM.

Consider `COc1cc(OC)cc(-c2ccc(C(C)NC(=O)N(C)C3CCN(C)CC3)c(Cl)c2Cl)c1` (centres unmarked) [Compound H0611, 3-(1-(2,3-dichloro-3′,5′-dimethoxy-[1,1′-biphenyl]-4-yl)ethyl)-1-methyl-1-(1-methylpiperidin-4-yl)urea], for which the IC50 on GHSR1a [1] was 2300 nM. The EC50 at GHSR1a [2] is above 30000 nM.

As to `CC(NC(=O)N(C)C1CCN(C)CC1)c1ccc(-c2cccc(C(N)=O)c2)c(Cl)c1Cl` (centres unmarked) [Compound H0612, 2′,3′-dichloro-4′-(1-(3-methyl-3-(1-methylpiperidin-4-yl)ureido)ethyl)-[1,1′-biphenyl]-3-carboxamide], at GHSR1a [1], the IC50 turned out to be 1600 nM. Besides, the EC50 at GHSR1a [2] is above 30000 nM.

For `CC(NC(=O)N(C)C1CCN(C)CC1)c1ccc(-c2ccc(C#N)nc2)c(Cl)c1Cl` (centres unmarked) [Compound H0616, 3-(1-(2,3-dichloro-4-(6-cyanopyridin-3-yl)phenyl)ethyl)-1-methyl-1-(1-methylpiperidin-4-yl)urea], the IC50 at GHSR1a [1] came out at 132 nM. In addition, the EC50 on GHSR1a [2] came out at 580 nM.

In the case of `CC(NC(=O)N(C)C1CCN(C)CC1)c1ccc(-c2ccc(F)nc2)c(Cl)c1Cl` (centres unmarked) [Compound H0618, 3-(1-(2,3-dichloro-4-(6-fluoropyridin-3-yl)phenyl)ethyl)-1-methyl-1-(1-methylpiperidin-4-yl)urea], on GHSR1a [1], the IC50 was found to be 40 nM. At GHSR1a [2], the EC50 was 130 nM.

As for `CC(NC(=O)N(O)C1CCN(C)CC1)c1ccc(-c2cncnc2)c(Cl)c1Cl` (centres unmarked) [Compound H0624, 3-(1-(2,3-dichloro-4-(pyrimidin-5-yl)phenyl)ethyl)-1-hydroxy-1-(1-methylpiperidin-4-yl)urea], the IC50 on GHSR1a [1] is 253 nM. At GHSR1a [2], the EC50 was above 30000 nM.

With `C=Cc1ccc(C(C)NC(=O)N(C)C2CCN(C)CC2)c(Cl)c1Cl` (centres unmarked) [Compound H0626, 3-(1-(2,3-dichloro-4-vinylphenyl)ethyl)-1-methyl-1-(1-methylpiperidin-4-yl)urea], the IC50 at GHSR1a [1] is 4 nM. In addition, on GHSR1a [2], the EC50 was 15 nM and the Emax is 3835.

As for `CCc1ccc(C(C)NC(=O)N(C)C2CCN(C)CC2)c(Cl)c1Cl` (centres unmarked) [Compound H0628, 3-(1-(2,3-dichloro-4-ethylphenyl)ethyl)-1-methyl-1-(1-methylpiperidin-4-yl)urea], the IC50 at GHSR1a [1] worked out at 59 nM. At GHSR1a [2], the EC50 came out at 101 nM and the Emax came to 4433.

In the case of `CN1CCC(N(C)C(=O)NC(C#N)c2ccc(-c3cncnc3)c(Cl)c2Cl)CC1` (centres unmarked) [Compound H0631, 3-(cyano(2,3-dichloro-4-(pyrimidin-5-yl)phenyl)methyl)-1-methyl-1-(1-methylpiperidin-4-yl)urea], at GHSR1a [1], the IC50 came out at 719 nM. Besides, the EC50 on GHSR1a [2] was above 30000 nM.

As to `CC(NC(=O)N(C)C1CCN(C)CC1)c1ccc(CF)c(Cl)c1Cl` (centres unmarked) [Compound H0634, 3-(1-(2,3-dichloro-4-(fluoromethyl)phenyl)ethyl)-1-methyl-1-(1-methylpiperidin-4-yl)urea], the IC50 on GHSR1a [1] stood at 13 nM. For the same molecule, on GHSR1a [2], the half-maximal effective concentration (EC50) was 37 nM.

Regarding `COC(=O)c1cncc(-c2ccc(C(C)NC(=O)N(C)C3CCN(C)CC3)c(Cl)c2Cl)c1` (centres unmarked) [Compound H0635, methyl 5-(2,3-dichloro-4-(1-(3-methyl-3-(1-methylpiperidin-4-yl)ureido)ethyl)phenyl)nicotinate], on GHSR1a [1], the half-inhibitory concentration (IC50) was 1090 nM. Moreover, the EC50 on GHSR1a [2] was above 30000 nM.

Take `CC(NC(=O)N(C)C1CCN(C)CC1)c1ccc(-c2cncc(CF)c2)c(Cl)c1Cl` (centres unmarked) [Compound H0638, 3-(1-(2,3-dichloro-4-(5-(fluoromethyl)pyridin-3-yl)phenyl)ethyl)-1-methyl-1-(1-methylpiperidin-4-yl)urea]: the IC50 at GHSR1a [1] was 57 nM. Besides, the EC50 at GHSR1a [2] was above 30000 nM.

As to `CC(NC(=O)N(C)C1CCN(C)CC1)c1ccc(C=O)c(Cl)c1Cl` (centres unmarked) [Compound H0640, 3-(1-(2,3-dichloro-4-formylphenyl)ethyl)-1-methyl-1-(1-methylpiperidin-4-yl)urea], at GHSR1a [1], the IC50 was 103 nM. The EC50 at GHSR1a [2] was above 30000 nM.

On to `COC(=O)/C=C/c1ccc(C(C)NC(=O)N(C)C2CCN(C)CC2)c(Cl)c1Cl` (centres unmarked) [Compound H0641, methyl (E)-3-(2,3-dichloro-4-(1-(3-methyl-3-(1-methylpiperidin-4-yl)ureido)ethyl)phenyl)acrylate], for which, at GHSR1a [1], the IC50 was found to be 18 nM. For the same molecule, at GHSR1a [2], the half-maximal effective concentration (EC50) was determined as 35 nM and the Emax is 1690.

Consider `CC(NC(=O)N(C)C1CCN(C)CC1)c1ccc(CCCO)c(Cl)c1Cl` (centres unmarked) [Compound H0643, 3-(1-(2,3-dichloro-4-(3-hydroxypropyl)phenyl)ethyl)-1-methyl-1-(1-methylpiperidin-4-yl)urea], for which the IC50 on GHSR1a [1] worked out at 22 nM. For the same molecule, on GHSR1a [2], the EC50 is 83 nM and the Emax came out at 2660.

For the molecule `CC(NC(=O)N(C)C1CCN(C)CC1)c1ccc(C2OCCO2)c(Cl)c1Cl` (centres unmarked) [Compound H0645, 3-(1-(2,3-dichloro-4-(1,3-dioxolan-2-yl)phenyl)ethyl)-1-methyl-1-(1-methylpiperidin-4-yl)urea], at GHSR1a [1], the IC50 was found to be 133 nM. Further, at GHSR1a [2], the EC50 was determined as 287 nM and the Emax was 2761.

On to `CC(NC(=O)N(C)C1CCN(C)CC1)c1ccc(-c2cncc(/C=N/O)c2)c(Cl)c1Cl` (centres unmarked) [Compound H0646, (E)-3-(1-(2,3-dichloro-4-(5-((hydroxyimino)methyl)pyridin-3-yl)phenyl)ethyl)-1-methyl-1-(1-methylpiperidin-4-yl)urea], for which the IC50 at GHSR1a [1] was 541 nM. For the same molecule, at GHSR1a [2], the EC50 is above 30000 nM.

On to `CC(NC(=O)N(C)C1CCN(C)CC1)c1ccc(-c2ccccn2)c(Cl)c1Cl` (centres unmarked) [Compound H0650, 3-(1-(2,3-dichloro-4-(pyridin-2-yl)phenyl)ethyl)-1-methyl-1-(1-methylpiperidin-4-yl)urea], for which the IC50 at GHSR1a [1] came out at 4 nM. Also, on GHSR1a [2], the EC50 stood at 9 nM and the Emax was found to be 2150.

As to `CC(NC(=O)N(C)C1CCN(C)CC1)c1ccc(-c2ccc(C=O)s2)c(Cl)c1Cl` (centres unmarked) [Compound H0651, 3-(1-(2,3-dichloro-4-(5-formylthiophen-2-yl)phenyl)ethyl)-1-methyl-1-(1-methylpiperidin-4-yl)urea], on GHSR1a [1], the IC50 amounted to 4 nM. Also, on GHSR1a [2], the EC50 was determined as 11 nM and the Emax is reported as 2300.
